Test results reported in patent US11542259B2, “Compounds for the treatment of kinase-dependent disorders” (Exelixis, Inc., priority 2018, dated 2023).

Legend:
[1] = biological target: Human Met (residues R974-S1390 with A1209G and V1290L) (Homo sapiens, UniProt P08581); test: Human Met kinase assay (33P radiometric, KinaseProfiler); format: biochemical; settings: 10 μM ATP, read-out: c-Met IC50
[2] = biological target: Human Mer (residues R557-E882 with H628Q and R794A) (Homo sapiens (Human), UniProt Q12866); test: Human Mer kinase assay (33P radiometric, KinaseProfiler); format: biochemical; settings: 10 μM ATP
Met = Met (Homo sapiens (Human), UniProt P08581); test: Met autophosphorylation ELISA in PC-3 cells; format: cell-based; settings: cellular, HGF stimulated, read-out: c-Met IC50
In short: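 Phospho-Met (panTyr) sandwich ELISA on lysates of PC-3 cells given 100 ng/mL HGF for 10 min after 1 h compound exposure (8-point curve, 0.3% DMSO) following 3 h serum starvation. Normalised to HGF-stimulated DMSO and reference-inhibitor wells; 4-parameter logistic IC50.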

[3] = biological target: Human Axl (residues H473-A894 with Q764R) (Homo sapiens (Human), UniProt P30530, Q764R); test: Human AXL kinase assay (33P radiometric, KinaseProfiler); format: biochemical; settings: 10 μM ATP
Human Axl (residues H473-A894 with Q764R), sequence (P30530 473-894 Q764R): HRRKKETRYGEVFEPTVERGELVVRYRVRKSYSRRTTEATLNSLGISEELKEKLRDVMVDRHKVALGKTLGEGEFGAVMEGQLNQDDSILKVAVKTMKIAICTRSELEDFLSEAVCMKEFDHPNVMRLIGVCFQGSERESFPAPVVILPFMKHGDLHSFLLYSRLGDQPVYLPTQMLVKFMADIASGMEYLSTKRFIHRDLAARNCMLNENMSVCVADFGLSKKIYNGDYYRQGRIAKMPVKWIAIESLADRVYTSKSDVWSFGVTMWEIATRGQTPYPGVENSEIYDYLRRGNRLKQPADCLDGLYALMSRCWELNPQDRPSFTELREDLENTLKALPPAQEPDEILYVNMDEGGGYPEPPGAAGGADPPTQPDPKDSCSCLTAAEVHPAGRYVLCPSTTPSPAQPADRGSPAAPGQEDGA

Human Mer (residues R557-E882 with H628Q and R794A), sequence (Q12866 557-882, stated change not applied): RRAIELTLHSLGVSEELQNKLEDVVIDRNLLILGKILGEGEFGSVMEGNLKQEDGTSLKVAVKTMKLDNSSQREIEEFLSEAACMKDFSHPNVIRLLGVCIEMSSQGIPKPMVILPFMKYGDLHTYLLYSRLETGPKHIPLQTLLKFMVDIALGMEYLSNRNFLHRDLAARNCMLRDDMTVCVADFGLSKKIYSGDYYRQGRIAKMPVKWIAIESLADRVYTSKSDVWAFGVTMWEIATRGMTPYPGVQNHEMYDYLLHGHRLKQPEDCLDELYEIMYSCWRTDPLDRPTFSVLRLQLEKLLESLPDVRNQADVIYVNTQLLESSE
Met, sequence (P08581 25-1390): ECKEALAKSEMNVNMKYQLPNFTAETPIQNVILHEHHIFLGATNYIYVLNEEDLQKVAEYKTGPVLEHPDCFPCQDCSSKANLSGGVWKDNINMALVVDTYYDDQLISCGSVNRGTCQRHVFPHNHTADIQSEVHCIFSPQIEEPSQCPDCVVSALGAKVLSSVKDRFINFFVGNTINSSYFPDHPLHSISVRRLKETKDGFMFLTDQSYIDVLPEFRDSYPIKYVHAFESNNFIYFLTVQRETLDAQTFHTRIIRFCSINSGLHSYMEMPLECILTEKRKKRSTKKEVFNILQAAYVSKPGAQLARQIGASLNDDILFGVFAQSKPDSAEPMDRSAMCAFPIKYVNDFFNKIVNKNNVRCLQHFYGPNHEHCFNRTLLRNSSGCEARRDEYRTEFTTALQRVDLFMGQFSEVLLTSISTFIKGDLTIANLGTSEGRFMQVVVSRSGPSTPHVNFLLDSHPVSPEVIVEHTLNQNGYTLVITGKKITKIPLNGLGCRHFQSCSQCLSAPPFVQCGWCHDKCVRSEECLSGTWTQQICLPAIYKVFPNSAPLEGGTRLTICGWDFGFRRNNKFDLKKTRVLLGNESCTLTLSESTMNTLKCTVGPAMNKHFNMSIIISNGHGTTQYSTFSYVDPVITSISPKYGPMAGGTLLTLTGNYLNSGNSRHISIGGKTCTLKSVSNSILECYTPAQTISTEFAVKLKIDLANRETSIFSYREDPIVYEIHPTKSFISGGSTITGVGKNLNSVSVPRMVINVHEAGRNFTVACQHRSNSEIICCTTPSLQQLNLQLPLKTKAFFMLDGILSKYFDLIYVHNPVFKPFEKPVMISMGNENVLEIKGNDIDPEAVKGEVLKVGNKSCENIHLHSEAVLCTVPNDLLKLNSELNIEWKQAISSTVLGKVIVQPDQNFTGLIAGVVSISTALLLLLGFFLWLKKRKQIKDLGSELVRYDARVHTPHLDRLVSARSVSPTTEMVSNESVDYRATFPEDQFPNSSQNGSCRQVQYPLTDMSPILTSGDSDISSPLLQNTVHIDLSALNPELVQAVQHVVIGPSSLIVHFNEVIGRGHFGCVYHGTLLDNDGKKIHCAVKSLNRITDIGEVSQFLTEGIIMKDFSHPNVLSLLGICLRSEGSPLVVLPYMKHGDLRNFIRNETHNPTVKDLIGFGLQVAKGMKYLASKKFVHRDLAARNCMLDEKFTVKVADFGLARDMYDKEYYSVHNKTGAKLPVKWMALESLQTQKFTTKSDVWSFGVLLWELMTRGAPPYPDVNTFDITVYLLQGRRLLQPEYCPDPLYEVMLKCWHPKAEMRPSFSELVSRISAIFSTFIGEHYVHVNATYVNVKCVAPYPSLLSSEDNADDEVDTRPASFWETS

Structure (SMILES) | IC50 [1] [µM] | IC50 [2] [µM] | IC50 (Met) [µM] | IC50 [3] [µM]
COc1cc2nccc(Oc3ccc(NC(=O)C4(C(=O)Nc5ccc(F)cc5)CC4)cc3)c2cc1C#N [Compound 37, 1-N-[4-(6-cyano-7-methoxyquinolin-4-yl)oxyphenyl]-1-N′-(4-fluorophenyl)cyclopropane-1,1-dicarboxamide] | 0.01 to 0.1 | ≤ 0.01 | 0.01 to 0.1 | 0.01 to 0.1
NC(=O)c1ccc2nccc(Oc3ccc(NC(=O)C4(C(=O)Nc5ccc(F)cc5)CC4)cc3)c2c1 [Compound 58, 1-N-[4-(6-carbamoylquinolin-4-yl)oxyphenyl]-1-N′-(4-fluorophenyl)cyclopropane-1,1-dicarboxamide] | 0.01 to 0.1 | 0.01 to 0.1 | 0.1 to 0.3 | 0.01 to 0.1
CNC(=O)c1ccc2nccc(Oc3ccc(NC(=O)C4(C(=O)Nc5ccc(F)cc5)CC4)cc3)c2c1 [Compound 59, 1-N′-(4-fluorophenyl)-1-N-[4-[6-(methylcarbamoyl)quinolin-4-yl]oxyphenyl]cyclopropane-1,1-dicarboxamide] | 0.01 to 0.1 | 0.01 to 0.1 | 0.1 to 0.3 | 0.01 to 0.1
CN1CC(NC(=O)c2ccc3nccc(Oc4ccc(NC(=O)C5(C(=O)Nc6ccc(F)cc6)CC5)cc4)c3c2)C1 [Compound 60, 1-N′-(4-fluorophenyl)-1-N-[4-[6-[(1-methylazetidin-3-yl)carbamoyl]quinolin-4-yl]oxyphenyl]cyclopropane-1,1-dicarboxamide] | 0.01 to 0.1 | 0.01 to 0.1 | 0.1 to 0.3 | 0.01 to 0.1
NC(=O)c1cc2c(Oc3ccc(NC(=O)C4(C(=O)Nc5ccc(F)cc5)CC4)cc3)ccnc2cc1F [Compound 67, 1-N-[4-(6-carbamoyl-7-fluoroquinolin-4-yl)oxyphenyl]-1-N′-(4-fluorophenyl)cyclopropane-1,1-dicarboxamide] | 0.01 to 0.1 | 0.01 to 0.1 | 0.1 to 0.3 | 0.01 to 0.1
NC(=O)c1cc2c(Oc3ccc(NC(=O)C4(C(=O)Nc5ccc(F)cc5)CC4)cc3)ccnc2cc1OCCCN1CCOCC1 [Compound 98, 1-N-[4-[6-carbamoyl-7-(3-morpholin-4-ylpropoxy)quinolin-4-yl]oxyphenyl]-1-N′-(4-fluorophenyl)cyclopropane-1,1-dicarboxamide] | ≤ 0.01 | ≤ 0.01 | ≤ 0.01 | ≤ 0.01
COCCOc1cc2nccc(Oc3ccc(NC(=O)C4(C(=O)Nc5ccc(F)cc5)CC4)cc3)c2cc1C(N)=O [Compound 103, 1-N-[4-[6-carbamoyl-7-(2-methoxyethoxy)quinolin-4-yl]oxyphenyl]-1-N′-(4-fluorophenyl)cyclopropane-1,1-dicarboxamide] | ≤ 0.01 | ≤ 0.01 | 0.01 to 0.1 | 0.01 to 0.1
COC(=O)c1cc2c(Oc3ccc(NC(=O)C4(C(=O)Nc5ccc(F)cc5)CC4)cc3Cl)ccnc2cc1OC [Compound 128, methyl 4-[2-chloro-4-[[1-[(4-fluorophenyl)carbamoyl]cyclopropanecarbonyl]amino]phenoxy]-7-methoxyquinoline-6-carboxylate] | ≤ 0.01 | ≤ 0.01 | 0.01 to 0.1 | ≤ 0.01
COC(=O)c1cc2c(Oc3ccc(NC(=O)C4(C(=O)Nc5ccc(F)cc5)CC4)cc3F)ccnc2cc1OC [Compound 129, methyl 4-[2-fluoro-4-[[1-[(4-fluorophenyl)carbamoyl]cyclopropanecarbonyl]amino]phenoxy]-7-methoxyquinoline-6-carboxylate] | ≤ 0.01 | ≤ 0.01 | 0.01 to 0.1 | ≤ 0.01
COc1cc2nccc(Oc3ccc(NC(=O)C4(C(=O)Nc5ccc(F)cc5)CC4)cc3Cl)c2cc1C(=O)O [Compound 130, 4-[2-chloro-4-[[1-[(4-fluorophenyl)carbamoyl]cyclopropanecarbonyl]amino]phenoxy]-7-methoxyquinoline-6-carboxylic acid] | 0.01 to 0.1 | 0.01 to 0.1 | > 0.3 | 0.01 to 0.1
COc1cc2nccc(Oc3ccc(NC(=O)C4(C(=O)Nc5ccc(F)cc5)CC4)cc3F)c2cc1C(=O)O [Compound 131, 4-[2-fluoro-4-[[1-[(4-fluorophenyl)carbamoyl]cyclopropanecarbonyl]amino]phenoxy]-7-methoxyquinoline-6-carboxylic acid] | ≤ 0.01 | 0.01 to 0.1 | > 0.3 | 0.01 to 0.1
COc1cc2nccc(Oc3ccc(NC(=O)C4(C(=O)Nc5ccc(F)cc5)CC4)cc3Cl)c2cc1C(N)=O [Compound 132, 1-N′-[4-(6-carbamoyl-7-methoxyquinolin-4-yl)oxy-3-chlorophenyl]-1-N-(4-fluorophenyl)cyclopropane-1,1-dicarboxamide] | ≤ 0.01 | ≤ 0.01 | ≤ 0.01 | ≤ 0.01
COc1cc2nccc(Oc3ccc(NC(=O)C4(C(=O)Nc5ccc(F)cc5)CC4)cc3F)c2cc1C(N)=O [Compound 133, 1-N′-[4-(6-carbamoyl-7-methoxyquinolin-4-yl)oxy-3-fluorophenyl]-1-N-(4-fluorophenyl)cyclopropane-1,1-dicarboxamide] | ≤ 0.01 | ≤ 0.01 | ≤ 0.01 | ≤ 0.01
CNC(=O)c1cc2c(Oc3ccc(NC(=O)C4(C(=O)Nc5ccc(F)cc5)CC4)cc3Cl)ccnc2cc1OC [Compound 134, 1-N′-[3-chloro-4-[7-methoxy-6-(methylcarbamoyl)quinolin-4-yl]oxyphenyl]-1-N-(4-fluorophenyl)cyclopropane-1,1-dicarboxamide] | ≤ 0.01 | ≤ 0.01 | ≤ 0.01 | ≤ 0.01

Second part, the molecule after the results:

IC50 [1] [µM] | IC50 [2] [µM] | IC50 (Met) [µM] | IC50 [3] [µM] | Structure (SMILES)
≤ 0.01 | ≤ 0.01 | ≤ 0.01 | ≤ 0.01 | CNC(=O)c1cc2c(Oc3ccc(NC(=O)C4(C(=O)Nc5ccc(F)cc5)CC4)cc3F)ccnc2cc1OC [Compound 135, 1-N′-[3-fluoro-4-[7-methoxy-6-(methylcarbamoyl)quinolin-4-yl]oxyphenyl]-1-N-(4-fluorophenyl)cyclopropane-1,1-dicarboxamide]
0.01 to 0.1 | ≤ 0.01 | 0.01 to 0.1 | 0.01 to 0.1 | COC(=O)c1cc2nccc(Oc3ccc(NC(=O)C4(C(=O)Nc5ccc(F)cc5)CC4)cc3)c2cc1C [Compound 140, methyl 4-[4-[[1-[(4-fluorophenyl)carbamoyl]cyclopropanecarbonyl]amino]phenoxy]-6-methylquinoline-7-carboxylate]
≤ 0.01 | ≤ 0.01 | 0.01 to 0.1 | ≤ 0.01 | Cc1cc2c(Oc3ccc(NC(=O)C4(C(=O)Nc5ccc(F)cc5)CC4)cc3)ccnc2cc1C(N)=O [Compound 142, 1-N-[4-(7-carbamoyl-6-methylquinolin-4-yl)oxyphenyl]-1-N′-(4-fluorophenyl)cyclopropane-1,1-dicarboxamide]
≤ 0.01 | ≤ 0.01 | 0.01 to 0.1 | 0.01 to 0.1 | CNC(=O)c1cc2nccc(Oc3ccc(NC(=O)C4(C(=O)Nc5ccc(F)cc5)CC4)cc3)c2cc1C [Compound 143, 1-N′-(4-fluorophenyl)-1-N-[4-[6-methyl-7-(methylcarbamoyl)quinolin-4-yl]oxyphenyl]cyclopropane-1,1-dicarboxamide]
≤ 0.01 | ≤ 0.01 | 0.01 to 0.1 | 0.01 to 0.1 | COC(=O)c1cc2nccc(Oc3ccc(NC(=O)C4(C(=O)Nc5ccc(F)cc5)CC4)cc3)c2cc1OC [Compound 150, methyl 4-[4-[[1-[(4-fluorophenyl)carbamoyl]cyclopropanecarbonyl]amino]phenoxy]-6-methoxyquinoline-7-carboxylate]
≤ 0.01 | ≤ 0.01 | 0.1 to 0.3 | 0.01 to 0.1 | COc1cc2c(Oc3ccc(NC(=O)C4(C(=O)Nc5ccc(F)cc5)CC4)cc3)ccnc2cc1C(N)=O [Compound 152, 1-N-[4-(7-carbamoyl-6-methoxyquinolin-4-yl)oxyphenyl]-1-N′-(4-fluorophenyl)cyclopropane-1,1-dicarboxamide]
0.01 to 0.1 | ≤ 0.01 | 0.1 to 0.3 | 0.01 to 0.1 | CNC(=O)c1cc2nccc(Oc3ccc(NC(=O)C4(C(=O)Nc5ccc(F)cc5)CC4)cc3)c2cc1OC [Compound 153, 1-N′-(4-fluorophenyl)-1-N-[4-[6-methoxy-7-(methylcarbamoyl)quinolin-4-yl]oxyphenyl]cyclopropane-1,1-dicarboxamide]
0.01 to 0.1 | ≤ 0.01 | 0.1 to 0.3 | 0.01 to 0.1 | COC(=O)c1ccc2c(Oc3ccc(NC(=O)C4(C(=O)Nc5ccc(F)cc5)CC4)cc3)ccnc2c1 [Compound 162, methyl 4-[4-[[1-[(4-fluorophenyl)carbamoyl]cyclopropanecarbonyl]amino]phenoxy]quinoline-7-carboxylate]
≤ 0.01 | ≤ 0.01 | ≤ 0.01 | ≤ 0.01 | NC(=O)c1ccc2c(Oc3ccc(NC(=O)C4(C(=O)Nc5ccc(F)cc5)CC4)cc3)ccnc2c1 [Compound 164, 1-N-[4-(7-carbamoylquinolin-4-yl)oxyphenyl]-1-N′-(4-fluorophenyl)cyclopropane-1,1-dicarboxamide]
≤ 0.01 | ≤ 0.01 | ≤ 0.01 | ≤ 0.01 | CNC(=O)c1ccc2c(Oc3ccc(NC(=O)C4(C(=O)Nc5ccc(F)cc5)CC4)cc3)ccnc2c1 [Compound 165, 1-N′-(4-fluorophenyl)-1-N-[4-[7-(methylcarbamoyl)quinolin-4-yl]oxyphenyl]cyclopropane-1,1-dicarboxamide]
